Experimental data taken from patent publication US20240228468A1, “N-(6-((OCTAHYDROCYCLOPENTA[C]PYRROL-5-YI)AMINO)PYRIDAZIN-3-YL)PHENYL)CARBOXAMIDE AND (6- ((OCTAHYDROCYCLOPENTA[C]PYRROL-5-YL)AMINO)PYRIDAZIN-3-YL)BENZAMIDE DERIVATIVES AS MACHR M4 ANTAGONISTS FOR THE TREATMENT OF NEURODEGENERATIVE DISORDERS” (Vanderbilt University, priority 2021, published 2024).
Where two headings read alike, the source gives them in different places.

Target: T1, Human M4 (Homo sapiens, UniProt P08173)
T1 construct: expressed in transfected cells; host or cells: CHO-K1 (ATCC), co-transfected with chimeric G protein Gqi5
T1 sequence (P08173 1-479): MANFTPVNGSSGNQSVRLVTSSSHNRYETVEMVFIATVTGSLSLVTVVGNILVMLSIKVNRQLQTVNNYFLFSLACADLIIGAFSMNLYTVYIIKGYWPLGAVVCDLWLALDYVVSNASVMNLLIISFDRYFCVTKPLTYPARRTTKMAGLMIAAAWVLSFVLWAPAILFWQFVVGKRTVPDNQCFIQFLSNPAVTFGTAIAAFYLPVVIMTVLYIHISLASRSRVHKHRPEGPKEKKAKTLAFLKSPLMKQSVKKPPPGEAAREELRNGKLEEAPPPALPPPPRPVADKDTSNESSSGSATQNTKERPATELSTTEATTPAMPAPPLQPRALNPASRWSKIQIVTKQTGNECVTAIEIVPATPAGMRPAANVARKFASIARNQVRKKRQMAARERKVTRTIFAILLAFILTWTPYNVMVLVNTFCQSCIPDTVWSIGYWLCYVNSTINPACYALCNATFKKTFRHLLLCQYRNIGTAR
Experiment: mAChR M4 cell-based functional assay (calcium flux, antagonism of EC80 acetylcholine response)
Settings: for IC50: concentration-dependent decrease of the response elicited by an EC80 concentration of acetylcholine
Method in brief: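 CHO-K1 cells stably expressing human M4 with chimeric Gqi5, Fluo-4 loaded; calcium flux read on FDSS. Compound (10-point, 1:3 series) added first, then EC20 acetylcholine at 143 s and EC80 at 268 s. IC50 from concentration-dependent decrease of EC80 response, four-parameter logistic fit.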

[1] = M4/Gqi5/CHO-K1 cells, % ACh maximum at 30 μM, read-out: Human M4 Emin (% ACh maximum at 30 μM)

Row | Structure (SMILES) | remaining activity at 30 µM [1] [%] | IC50 (M4/Gqi5/CHO-K1 cells) [µM] | remaining activity at 30 µM (CHO-K1, read-out: Human M4 Emin (% ACh maximum at 30 μM)) [%]
1 | [2H]C([2H])(C1CCOCC1)N1C[C@H]2C[C@H](Nc3ccc(-c4cc(F)c(C(=O)N(C)C)c(F)c4F)nn3)C[C@H]2C1 [Compound A67, 2,3,6-Trifluoro-N,N-dimethyl-4-(6-(((3aR,5s,6aS)-2-((tetrahydro-2H-pyran-4-yl)methyl-d2)octahydrocyclopenta[c]pyrrol-5-yl)amino)pyridazin-3-yl)benzamide] | – | 0.011 | 4
2 | [2H]C([2H])(C1CCOC(C)(C)C1)N1C[C@H]2C[C@H](Nc3ccc(-c4cccc(C(=O)NC)c4)nn3)C[C@H]2C1 (stereo partly drawn) [Compound A75, 3-(6-(((3aR,5s,6aS)-2-((2,2-dimethyltetrahydro-2H-pyran-4-yl)methyl-d2)octahydrocyclopenta[c]pyrrol-5-yl)amino)pyridazin-3-yl)-N-methylbenzamide] | 3 | 0.0034 | –
3 | [2H]C([2H])(C1CC(C)(C)OC(C)(C)C1)N1C[C@H]2C[C@H](Nc3ccc(-c4cccc(C(=O)NC)c4)nn3)C[C@H]2C1 [Compound A76, N-methyl-3-(6-(((3aR,5s,6aS)-2-((2,2,6,6-tetramethyltetrahydro-2H-pyran-4-yl)methyl-d2)octahydrocyclopenta[c]pyrrol-5-yl)amino)pyridazin-3-yl)benzamide] | 4 | 0.099 | –
4 | [2H]C([2H])([C@H]1COCCO1)N1C[C@H]2C[C@H](Nc3ccc(-c4cccc(C(=O)NC)c4)nn3)C[C@H]2C1 [Compound A77, 3-(6-(((3aR,5s,6aS)-2-(((S)-1,4-dioxan-2-yl)methyl-d2)octahydrocyclopenta[c]pyrrol-5-yl)amino)pyridazin-3-yl)-N-methylbenzamide] | 4 | 0.045 | –
5 | [2H]C([2H])([C@H]1CCCOC1)N1C[C@H]2C[C@H](Nc3ccc(-c4cccc(C(=O)NC)c4)nn3)C[C@H]2C1 [Compound A78, N-methyl-3-(6-(((3aR,5s,6aS)-2-(((R)-tetrahydro-2H-pyran-3-yl)methyl-d2)octahydrocyclopenta[c]pyrrol-5-yl)amino)pyridazin-3-yl)benzamide] | 8 | 0.57 | –
6 | [2H]C([2H])([C@H]1CCCCO1)N1C[C@H]2C[C@H](Nc3ccc(-c4cccc(C(=O)NC)c4)nn3)C[C@H]2C1 [Compound A81, N-methyl-3-(6-(((3aR,5s,6aS)-2-(((R)-tetrahydro-2H-pyran-2-yl)methyl-d2)octahydrocyclopenta[c]pyrrol-5-yl)amino)pyridazin-3-yl)benzamide] | 4 | 0.00041 | –
7 | [2H]C1([2H])CC(C([2H])([2H])N2C[C@H]3C[C@H](Nc4ccc(-c5cc(F)cc(C(=O)NC)c5)nn4)C[C@H]3C2)CC([2H])([2H])O1 [Compound A82, 3-fluoro-N-methyl-5-(6-(((3aR,5s,6aS)-2-((tetrahydro-2H-pyran-4-yl-2,2,6,6-d4)methyl-d2)octahydrocyclopenta[c]pyrrol-5-yl)amino)pyridazin-3-yl)benzamide] | 5 | 0.029 | –
8 | [2H]C([2H])(C1CCOC(C)(C)C1)N1C[C@H]2C[C@H](Nc3ccc(-c4cc(F)cc(C(=O)NC)c4)nn3)C[C@H]2C1 (stereo partly drawn) [Compound A83, 3-(6-(((3aR,5s,6aS)-2-((2,2-dimethyltetrahydro-2H-pyran-4-yl)methyl-d2)octahydrocyclopenta[c]pyrrol-5-yl)amino)pyridazin-3-yl)-5-fluoro-N-methylbenzamide] | 4 | 0.0027 | –
9 | [2H]C([2H])([C@@H]1CCCCO1)N1C[C@H]2C[C@H](Nc3ccc(-c4cc(F)cc(C(=O)NC)c4)nn3)C[C@H]2C1 [Compound A86, 3-fluoro-N-methyl-5-(6-(((3aR,5s,6aS)-2-(((S)-tetrahydro-2H-pyran-2-yl)methyl-d2)octahydrocyclopenta[c]pyrrol-5-yl)amino)pyridazin-3-yl)benzamide] | 4 | 0.0027 | –
10 | [2H]C([2H])([C@H]1CCCCO1)N1C[C@H]2C[C@H](Nc3ccc(-c4cc(F)cc(C(=O)NC)c4)nn3)C[C@H]2C1 [Compound A87, 3-fluoro-N-methyl-5-(6-(((3aR,5s,6aS)-2-(((R)-tetrahydro-2H-pyran-2-yl)methyl-d2)octahydrocyclopenta[c]pyrrol-5-yl)amino)pyridazin-3-yl)benzamide] | 4 | 0.0009 | –

Now from value to compound, other results behind:

Row | remaining activity at 30 µM [1] [%] | IC50 (M4/Gqi5/CHO-K1 cells) [µM] | Structure (SMILES) | remaining activity at 30 µM (CHO-K1, read-out: Human M4 Emin (% ACh maximum at 30 μM)) [%]
11 | 4 | 0.016 | [2H]C([2H])(C1CCOCC1)N1C[C@H]2C[C@H](Nc3ccc(-c4cc(F)c(C(=O)NC)c(F)c4F)nn3)C[C@H]2C1 [Compound A66, 2,3,6-trifluoro-N-methyl-4-(6-(((3aR,5s,6aS)-2-((tetrahydro-2H-pyran-4-yl)methyl-d2)octahydrocyclopenta[c]pyrrol-5-yl)amino)pyridazin-3-yl)benzamide] | –
12 | 4 | 0.011 | [2H]C([2H])(C1CCOCC1)N1C[C@H]2C[C@H](Nc3ccc(-c4cc(F)c(C(N)=O)c(F)c4)nn3)C[C@H]2C1 [Compound A68, 2,6-difluoro-4-(6-(((3aR,5s,6aS)-2-((tetrahydro-2H-pyran-4-yl)methyl-d2)octahydrocyclopenta[c]pyrrol-5-yl)amino)pyridazin-3-yl)benzamide] | –
13 | 5 | 0.12 | [2H]C([2H])(C1CCOCC1)N1C[C@H]2C[C@H](Nc3ccc(-c4cc(C(=O)NC)ccc4F)nn3)C[C@H]2C1 [Compound A69, 4-fluoro-N-methyl-3-(6-(((3aR,5s,6aS)-2-((tetrahydro-2H-pyran-4-yl)methyl-d2)octahydrocyclopenta[c]pyrrol-5-yl)amino)pyridazin-3-yl)benzamide] | –
14 | 4 | 0.0047 | [2H]C([2H])(C1CCOCC1)N1C[C@H]2C[C@H](Nc3ccc(-c4ccc(C(=O)NC)c(F)c4)nn3)C[C@H]2C1 [Compound A70, 2-fluoro-N-methyl-4-(6-(((3aR,5s,6aS)-2-((tetrahydro-2H-pyran-4-yl)methyl-d2)octahydrocyclopenta[c]pyrrol-5-yl)amino)pyridazin-3-yl)benzamide] | –
15 | 4 | 0.014 | [2H]C([2H])(C1CCOCC1)N1C[C@H]2C[C@H](Nc3ccc(-c4cc(F)cc(C(=O)NC)c4)nn3)C[C@H]2C1 [Compound A71, 3-Fluoro-N-methyl-5-(6-(((3aR,5s,6aS)-2-((tetrahydro-2H-pyran-4-yl)methyl-d2)octahydrocyclopenta[c]pyrrol-5-yl)amino)pyridazin-3-yl)benzamide] | –
16 | 5 | 0.028 | [2H]C([2H])(C1CCOCC1)N1C[C@H]2C[C@H](Nc3ccc(-c4cccc(C(=O)NC(C)C)c4)nn3)C[C@H]2C1 [Compound A72, N-isopropyl-3-(6-(((3aR,5s,6aS)-2-((tetrahydro-2H-pyran-4-yl)methyl-d2)octahydrocyclopenta[c]pyrrol-5-yl)amino)pyridazin-3-yl)benzamide] | –
17 | 7 | 0.31 | [2H]C([2H])(C1CCOCC1)N1C[C@H]2C[C@H](Nc3ccc(-c4ccc(F)c(C(=O)NC)c4)nn3)C[C@H]2C1 [Compound A73, 2-fluoro-N-methyl-5-(6-(((3aR,5s,6aS)-2-((tetrahydro-2H-pyran-4-yl)methyl-d2)octahydrocyclopenta[c]pyrrol-5-yl)amino)pyridazin-3-yl)benzamide] | –
18 | 5 | 0.092 | [2H]C([2H])([C@@H]1CCCOC1)N1C[C@H]2C[C@H](Nc3ccc(-c4cccc(C(=O)NC)c4)nn3)C[C@H]2C1 [Compound A79, N-methyl-3-(6-(((3aR,5s,6aS)-2-(((S)-tetrahydro-2H-pyran-3-yl)methyl-d2)octahydrocyclopenta[c]pyrrol-5-yl)amino)pyridazin-3-yl)benzamide] | –
19 | 6 | 0.34 | [2H]C([2H])([C@H]1CCCOC1)N1C[C@H]2C[C@H](Nc3ccc(-c4cc(F)cc(C(=O)NC)c4)nn3)C[C@H]2C1 [Compound A84, 3-fluoro-N-methyl-5-(6-(((3aR,5s,6aS)-2-(((R)-tetrahydro-2H-pyran-3-yl)methyl-d2)octahydrocyclopenta[c]pyrrol-5-yl)amino)pyridazin-3-yl)benzamide] | –
20 | 5 | 0.084 | [2H]C([2H])([C@@H]1CCCOC1)N1C[C@H]2C[C@H](Nc3ccc(-c4cc(F)cc(C(=O)NC)c4)nn3)C[C@H]2C1 [Compound A85, 3-fluoro-N-methyl-5-(6-(((3aR,5s,6aS)-2-(((S)-tetrahydro-2H-pyran-3-yl)methyl-d2)octahydrocyclopenta[c]pyrrol-5-yl)amino)pyridazin-3-yl)benzamide] | –
